The results in this text go back to US4562199A, “Imidazole derivatives, compositions and use” (priority 1983, dated 1985).

Where a name gives a salt, the structure may show the parent alone.

This assay deals with T1, Thromboxane A2 Synthetase (Equus caballus, UniProt A0A9L0T8T9).
T1 construct: [1-14C]arachidonic acid substrate, TXB2 by TLC
T1 sequence (A0A9L0T8T9 2-534): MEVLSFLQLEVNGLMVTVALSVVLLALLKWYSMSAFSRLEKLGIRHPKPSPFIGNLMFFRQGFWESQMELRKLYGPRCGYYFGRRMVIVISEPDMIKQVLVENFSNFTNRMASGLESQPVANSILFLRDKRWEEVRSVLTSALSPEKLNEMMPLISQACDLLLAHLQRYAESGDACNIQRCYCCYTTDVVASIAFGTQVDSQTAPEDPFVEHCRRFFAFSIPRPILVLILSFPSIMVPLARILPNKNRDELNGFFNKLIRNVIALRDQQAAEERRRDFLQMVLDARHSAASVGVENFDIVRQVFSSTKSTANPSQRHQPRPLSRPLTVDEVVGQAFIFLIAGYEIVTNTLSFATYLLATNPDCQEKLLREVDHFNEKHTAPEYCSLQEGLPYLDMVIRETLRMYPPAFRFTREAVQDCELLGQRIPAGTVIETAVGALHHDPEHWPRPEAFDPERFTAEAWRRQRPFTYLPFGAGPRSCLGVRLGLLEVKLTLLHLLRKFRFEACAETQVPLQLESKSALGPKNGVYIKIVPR
Put plainly: Determination of Thromboxane A2 Synthetase Inhibitory Activity. The format is biochemical. Particulars: lysed platelets from horse PRP; [1-14C]-arachidonic acid; 3 min at 37° C.; Tris buffer pH 7.5; read-out: ED50 (concentration of active compound required to reduce the enzyme activity by 50%) (converted). As to the method: The active compound was dissolved in a suitable solvent at a concentration of 5 mg/ml, and 20 μl added to 0.8 ml of 100 mM Tris buffer (pH 7.5).
The platelets from 5 ml of horse PRP were centrifuged and resuspended in 100 μl of Tris buffer. After lysis by sonication or freeze thawing, the platelet suspension was added to the solution of active compound and equilibrated for 5 min at room temperature. Then 300 ng (50 nCi) of [1-^14 -C]-arachidonic acid, dissolved in 100 μl Tris buffer, was added and the mixture incubated for 3 min at 37° C.
The reaction was stopped with 50 μl 2N HCl and the product extracted with 1.5 volumes ethyl acetate by whirling for 30 seconds. 1 ml saturated NaCl was added to the aqueous phase to prevent emulsion formation. The organic layer was removed, dried under N2 and the products redissolved in 50 μl chloroform/methanol mixture for quantitative spotting onto a TLC plate, and subsequent analysis.
The plate was developed in chloroform, methanol, acetic acid, water (90:8:1:0.8), dried and then visualised by autoradiography for 2-3 days.
The concentration of active compound required to reduce the enzyme activity by 50% (ED50) was established.
For `O=C(O)c1ccc(Cn2ccnc2)c(Cl)c1` [Example 1, 1-(4-Carboxy-2-chlorobenzyl)imidazole hydrochloride], the IC50 is 24200 nM.

For `CCOC(=O)/C=C/c1ccc(Cn2ccnc2)c(Cl)c1` [Example 2, Ethyl (E)-3-[3-chloro-4-(imidazol-1-ylmethyl)phenyl]prop-2-enoate], the IC50 is 1720 nM.

In the case of `O=C(O)/C=C/c1ccc(Cn2ccnc2)c(Cl)c1` [Example 3, (E)-3-[3-Chloro-4-(imidazol-1-ylmethyl)phenyl]prop-2-enoic acid hydrochloride], the IC50 was 167 nM.

For the compound `O=C(O)CCc1ccc(Cn2ccnc2)c(Cl)c1` [Example 4, 3-[3-Chloro-4-(imidazol-1-ylmethyl)phenyl]propanoic acid hydrochloride], the IC50 is 266 nM.

For the compound `O=C(O)C=Cc1ccc(Cn2ccnc2)c(Br)c1` [Example 6, 3-[3-Bromo-4-(imidazol-1-ylmethyl)phenyl]prop-2-enoic acid hydrochloride hydrate], the IC50 was 41.5 nM.

As to `O=C(O)c1ccc(C=CCn2ccnc2)cc1Cl` [Example 10, 1-[3-(4-Carboxy-3-chlorophenyl)prop-2-enyl]imidazole hydrochloride hemihydrate], the IC50 is 1330 nM.
